Data on one molecule can be found in ChEMBL document CHEMBL4406791, “Allosteric Modalities for Membrane-Bound Receptors: Insights from Drug Hunting for Brain Diseases” (J Med Chem, 2019).

The target of this experiment is Metabotropic glutamate receptor 5 (Homo sapiens) (UniProt P41594). Briefly: Binding affinity to mGluR5 (unknown origin) assessed as association rate constant.
Sequence of Metabotropic glutamate receptor 5 (Homo sapiens) (P41594 21-1212 limits assumed): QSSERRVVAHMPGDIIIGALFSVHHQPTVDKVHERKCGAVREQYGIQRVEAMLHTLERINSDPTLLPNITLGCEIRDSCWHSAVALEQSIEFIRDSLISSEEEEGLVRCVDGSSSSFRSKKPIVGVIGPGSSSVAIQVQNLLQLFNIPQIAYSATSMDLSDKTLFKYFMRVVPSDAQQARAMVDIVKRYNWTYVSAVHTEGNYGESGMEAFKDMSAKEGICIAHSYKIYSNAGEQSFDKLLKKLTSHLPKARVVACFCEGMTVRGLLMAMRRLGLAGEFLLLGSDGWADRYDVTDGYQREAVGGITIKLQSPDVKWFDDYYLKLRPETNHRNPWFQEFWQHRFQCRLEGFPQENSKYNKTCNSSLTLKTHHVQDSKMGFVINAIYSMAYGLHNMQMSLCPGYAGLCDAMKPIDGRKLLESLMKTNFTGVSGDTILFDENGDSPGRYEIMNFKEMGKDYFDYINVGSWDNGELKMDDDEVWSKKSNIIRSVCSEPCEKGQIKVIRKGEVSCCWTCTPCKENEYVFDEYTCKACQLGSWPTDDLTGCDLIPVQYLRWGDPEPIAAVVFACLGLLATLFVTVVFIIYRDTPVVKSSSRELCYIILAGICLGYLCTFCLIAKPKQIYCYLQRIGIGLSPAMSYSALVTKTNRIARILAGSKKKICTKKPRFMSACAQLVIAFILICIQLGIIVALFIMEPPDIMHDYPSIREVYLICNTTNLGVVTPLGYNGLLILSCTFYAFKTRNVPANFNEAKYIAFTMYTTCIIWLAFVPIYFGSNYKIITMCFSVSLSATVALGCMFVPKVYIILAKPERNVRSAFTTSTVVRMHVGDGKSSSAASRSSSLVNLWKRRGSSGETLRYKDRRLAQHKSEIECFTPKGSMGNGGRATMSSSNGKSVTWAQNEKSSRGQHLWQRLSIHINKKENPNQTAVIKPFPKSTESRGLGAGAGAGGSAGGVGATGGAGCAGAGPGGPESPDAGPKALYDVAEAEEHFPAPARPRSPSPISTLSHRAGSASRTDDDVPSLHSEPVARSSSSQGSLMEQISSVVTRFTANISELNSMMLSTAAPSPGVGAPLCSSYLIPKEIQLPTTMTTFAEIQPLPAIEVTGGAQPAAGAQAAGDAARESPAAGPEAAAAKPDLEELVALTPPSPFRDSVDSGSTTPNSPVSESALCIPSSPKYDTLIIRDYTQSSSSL

As for `O=C(Nc1ccc(-c2ccn3c(CC4CC4)nnc3c2C(F)(F)F)cc1)c1ccc(S(=O)(=O)F)cc1`, the K was determined as 3.2 ×10³ /M/s.
